Assay results taken from US10000467B2, “Cyanine compounds” (Pierce Biotechnology, Inc., priority 2012, dated 2018).

What was measured:
HDAC2 = assay: Immunofluorescence in U2OS cells, rabbit-anti-HDAC2 primary antibody; format: cell-based, human
Description: (§1) The inventive compounds and commercial dye were evaluated for immunofluorescence in cell based assays using the following protocol. Plates containing U2OS cells (human osteosarcoma cell line) were fixed in 4% paraformaldehyde in PBS/0.1% Triton X-100 for 15 min at room temperature. The cells were then […] with 2% BSA in PBS/0.1% Triton X-100 for 15 min at room temperature. Negative controls contain only 2% BSA/PBS-0.1% Triton-X100 blocker. Diluted primary antibodies, mouse-anti-protein disulphide isomerase (PDI) or rabbit-anti-HDAC2, diluted in 2% BSA/PBS-0.1% Triton-X100 were added to the plates and incubated for one hour at room temperature. Negative controls contain only 2% BSA/PBS-0.1% Triton-X100 blocker. The plates were washed 3×100 μl with PBS. Based on the calculated protein concentrations, the conjugates made in Example 22 were diluted to 4 μg/ml in PBS/0.1% Triton X-100 and added to the plates (50 μl/well) and incubated one hour in the dark at room temperature. After incubation, the […] antibody solution was removed from the plates, and the plates were washed 3×100 μl with PBS. One hundred μl of 0.1 μg/ml Hoechst dye in PBS was added per well. The plates were then scanned on an ArrayScan® Plate Reader for imaging and quantitation.

[1] = test system: protein disulphide isomerase (PDI); assay: Immunofluorescence in U2OS cells, mouse-anti-PDI primary antibody; format: cell-based, human; conditions: FIGS. 17-19; GAM conjugates at 2.5×-15× molar excess
Description: as §1

[2] = FIGS. 20-22, GAR conjugates purified with 200 μl of resin/mg of protein

Alexa Fluor 647
Quenching (HDAC2; FIGS. 14-16, GAR conjugates at 2.5×-15× molar excess): significant quenching at high molar excesses
Fluorescence intensity (Mean Total Intensity) (HDAC2; [2]): highest binding intensity at 2.5× dye molar excess
Quenching (HDAC2; [2]): significant quenching above 2.5× molar excess
Fluorescence intensity (Mean Total Intensity) [1]: highest binding intensity at 2.5× dye molar excess
Quenching [1]: significant quenching above 2.5× molar excess
